How the values were obtained:
[1] = test system: endogenous Bcl-xL protein in HepG2 cell lysate; test: Co-precipitation of endogenous Bcl-xL from HepG2 cell lysate by biotinylated HBx peptides; format: binding, human; details: biotinylated peptide, streptavidin beads, immunoblot
Protocol: Fig. 2 HBx binds endogenous Bcl-xL through the BH3-like domain. a HBx-aa113–135 interacts with Bcl-xL in HepG2 cell lysate. Co-precipitation experiments were performed in the HepG2 cell lysate using biotinylated HBx-aa113–135 peptides (wild type (WT)) and corresponding mutant peptides (W120A/L123A), respectively. The results were analyzed by immunoblotting (IB) using anti-Bcl-xL antibody. β-Tubulin was measured and analyzed as an input control. b Full-length HBx interacts with Bcl-xL in HepG2 cells. Co-immunoprecipitation (co-IP) experiments were performed in HepG2 cells transfected with pTT22m-HBx-WT or pTT22m-HBx(W120A/L123A).
HepG2 cells were lysed in lysis buffer [100 mM NaCl, 0.5 mM MgCl2, 0.15 mM CaCl2, 1% (v/v) Nonidet P-40, 10 mM Tris-HCl, pH 8.0] containing protease inhibitor mixture tablets (Roche). Cell lysate was centrifuged at 12,000 × g for 10 min at 4 °C to removed debris and precleared with magnetic beads conjugated with streptavidin (Dynabeads® M-280 Streptavidin, Invitrogen). Subsequently, the precleared supernatant was incubated with C-terminal biotinylated peptides for 1 h with gentle shaking at 4 °C. […] The beads were washed five times with the lysis buffer and the bound proteins were resolved on a 13.5% sodium dodecyl sulfate-polyacrylamide gel and detected by anti-Bcl-xL antibody (Cell Signaling Technology).

[2] = test system: DDB1; format: binding; details: biotin-conjugated peptides, HepG2 lysate; peer review file, removed from final paper
Protocol: (§1) affect the level of the Smc6 proteins in HepG2 cell. a, Coprecipitation experiments were performed with HepG2 cell lysate that was incubated with biotinylated HBx-aa113-135 peptides (WT) and mutant peptides with the W120A/L123A mutations, respectively. The pulldown proteins were analyzed by immunoblotting (IB) using an anti-DDB1 antibody (Abcam, ab109027). b-c, HBx-aa113-135 peptides (wild-type and the W120A/L123A double mutant peptides) were delivered into HepG2 cells using PEP-1 nanoparticles, respectively. […]

[3] = test system: SMC6; format: cell-based; details: HepG2, 48 h, PEP-1 delivery; peer review file, removed from final paper
Protocol: as §1
Smc6 protein expression. Nuclei were stained with DAPI (Invitrogen, D1306). The fluorescence was detected by Opera Phenix High Content Screening System (PerkinElmer) and the mean green fluorescence intensity of cells was quantified by Opera Phenix High Content Screening System. The data shown are mean ± SD. Significant differences between groups are indicated on the top. ns, no significant difference; two-tailed unpaired t-tests.

[4] = test system: HBV replication from pHBV1.3-Xnull replicon in HepG2 cells; test: HBV production rescue assay, PEP-1 delivered peptides; format: cell-based; details: HepG2 + pHBV1.3-Xnull; for HBcAg in cells / HBeAg in culture medium / HBsAg in culture medium / Secreted HBV DNA: peptide/PEP-1, 48 h; for HBV viral protein production and HBV DNA replication (in words): peptide/PEP-1 nanoparticles, 48 h
Text: Fig. 3 The HBx-BH3-like domain is critical for HBV production in HepG2 cells. a–e C-terminal biotinylated HBx-aa113–135 peptides (both wild-type (WT) and the W120A/L123A double mutant) were delivered into HepG2 cells transfected with pHBV1.3-Xnull using PEP-1 nanoparticles (Methods) and analyzed by streptavidin-FITC (fluorescein isothiocyanate) for transfection efficiency (a). Scale bar is 50 μm. An unrelated 23-aa peptide was used as a control (Control). The intracellular expression levels of HBV core antigen (HBcAg (b) and the levels of HBV e-antigen (HBeAg) (c), HBV S-antigen (HBsAg) (d), and HBV DNA (e) in the culture medium collected from HepG2 cells were measured (Methods). The results are shown as fold change to the WT HBx-aa113–135 peptide (WT). f–i) HepG2 cells were co-transfected with pHBV1.3-Xnull and pTT22m-HBx-WT (WT), pHBV1.3-Xnull and pTT22m-HBx(W120A/L123A), or pHBV1.3-Xnull and the pTT22m vector control (Control). Intracellular expression levels of HBcAg (f) and the levels of HBeAg (g), HBsAg (h), and HBV DNA (i) in the culture medium from HepG2 cells were measured similarly. The results are shown as fold change to the combination of pHBV1.3-Xnull and pTT22m-HBx-WT (WT). Data shown represent mean ± SD. Significance is indicated on the top. **P < 0.01, ***P < 0.001, ****P < 0.0001; two-tailed unpaired t tests (n = 3 biologically independent samples). Source data are provided as a Source Data file
HepG2 cells were grown in Dulbecco’s modified Eagle’s medium (DMEM) with 10% Gibco fetal bovine serum. C-terminal biotinylated-labeled HBx peptides were transfected into HepG2 cells by pep-1[16], a peptide carrier for the delivery of biologically active proteins into mammalian cells. HBx peptides and pep-1 were firstly dissolved in DMEM to 1 mg/ml, then adjusted to 500 µl DMEM to a final concentration of 100 µg/ml, and incubated at 37 °C for 30 min in the tube. The incubated peptide mixture was added into pre-seeded HepG2 cells in a 24-well plate and incubated for another 30 min, and then washed five times by phosphate-buffered saline (PBS) to remove the free peptides. The transfected C-terminal biotinylated HBx peptides were detected by using streptavidin-FITC (fluorescein isothiocyanate) equipment (Thermo Fisher Scientific) following the standard immunostaining methods.
Transfection of plasmids into HepG2 cells was carried out using X-tremeGENE HP DNA Transfection Reagent (Roche), following the manufacturer’s protocol. A transfection efficiency of 20–30% could be achieved. Cells were pre-seeded 24 h before transfections. pHBV1.3-HBx-null plasmid was transfected into HepG2 cells for 6 h, then HBx-aa113–135, HBx-aa113–135-(W120A, L123A), or control peptide was transfected by pep-1 carrier and incubated for additional 48 h without the removal of peptides. The culture media of the HepG2 cells were harvest for analysis.
The levels of HBsAg, HBeAg, and HBcAg expression were measured by chemiluminescence, using Commercial Assay Kit (Wantai, Beijing, China). Northern blot analysis of HBV RNA, Southern blot analysis of HBV DNA, and real-time PCR quantification of HBV DNA are described in the Supplementary Methods.

[5] = molecular target: T1, Bcl-xL (Homo sapiens, UniProt Q07817, DEL27-82); test: Isothermal titration calorimetry of peptides with Bcl-xL; format: binding; details: ITC, 25 °C; Bcl-xL 10 μM in 25 mM Tris-HCl (pH 8.0); peptide 800 μM
T1 construct: 6xHis-SUMO (N, cleaved yes); made in house; host or cells: Escherichia coli BL21(DE3)
Text: The codon-optimized DNAs encoding Bcl-xLΔTM (the flexible loop, residues 27–82, and the transmembrane domain, residues, 197–233, are deleted, total […], named as Bcl-xL thereafter) was ordered from Genewiz (www.genewiz.com). The recombinant Bcl-xL with N-terminal SUMO-fused 6× His tag was generated by the insertion of the PCR products into pETSUMO vector (Invitrogen; www.thermofisher.com) and verified by sequencing. Recombinant proteins were expressed in Escherichia coli (BL21/DE3) strain overnight at 20 °C and proteins were induced by 0.4 mM isopropyl β-D-thiogalactoside. Cells were harvested by centrifugation and the pellets were re-suspended and passed through a cell disruptor (www.avestin.com) three times. After ultracentrifugation at 40,000 rpm for 1 h, the supernatant for His-tagged recombinant proteins were purified through Ni^2+ affinity column, cleaved by Ulp-1, followed by HiLoad Superdex S-75 26/60 column (GE Healthcare). The purified proteins were dialyzed against stabilization buffer containing 20 mM Tris-HCl (pH 7.0) and 100 mM NaCl and concentrated to 10–15 mg/ml in a Centriprep-30 (Amicon) for subsequent crystallization and biochemical analysis.
Microcalorimetry was used for all measurements. Bcl-xL protein was prepared at a final concentration of 10 μM in a buffer containing 25 mM Tris-HCl (pH 8.0). The ABT-263 was dissolved in the same buffer to a final concentration of 500 μM, while the peptides were dissolved to a final concentration of 800 μM. All experiments were carried out at 25 °C. Data were analyzed using the software Origin (OriginLab).

T1 sequence (Q07817 with tags, fused parts or gaps DEL27-82 limits assumed): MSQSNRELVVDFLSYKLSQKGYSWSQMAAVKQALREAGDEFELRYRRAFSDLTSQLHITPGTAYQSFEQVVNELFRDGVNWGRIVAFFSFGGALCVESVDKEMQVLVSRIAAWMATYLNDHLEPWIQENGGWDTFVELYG

Substance | co-precipitation of Bcl-xL [1] | pull-down of DDB1 by peptide [2] | level of SMC6 protein, compared with control peptide [3] | HBcAg in cells ([4]; replicate 1) | HBeAg in culture medium ([4]; replicate 1) | HBsAg in culture medium ([4]; replicate 1) | Secreted HBV DNA ([4]; replicate 1) | HBcAg in cells ([4]; replicate 2) | HBeAg in culture medium ([4]; replicate 2) | HBsAg in culture medium ([4]; replicate 2) | Secreted HBV DNA ([4]; replicate 2) | HBcAg in cells ([4]; replicate 3) | HBeAg in culture medium ([4]; replicate 3) | HBsAg in culture medium ([4]; replicate 3) | Secreted HBV DNA ([4]; replicate 3) | HBV viral protein production and HBV DNA replication (in words) [4] | dissociation constant [5]
KDCVFKDWEELGEEIRLKVFVLG-K-biotin [HBx-aa113–135-biotin, C-terminal biotinylated wild-type HBx-aa113–135; delivered with PEP-1 nanoparticles in cells] | Bcl-xL was co-precipitated | could not be pulled down | comparable | 1.057 fold-change to WT | 0.919 fold-change to WT | 0.971 fold-change to WT | 3830000 Copies/mL | 0.952 fold-change to WT | 1.090 fold-change to WT | 1.038 fold-change to WT | 2973000 Copies/mL | 0.991 fold-change to WT | 0.990 fold-change to WT | 0.991 fold-change to WT | 4056000 Copies/mL | significantly increased both HBV viral protein production and HBV DNA replication | 
KDCVFKDAEEAGEEIRLKVFVLG-K-biotin [HBx-aa113–135(W120A/L123A)] | much less Bcl-xL was co-precipitated | could not be pulled down | comparable | 0.546 fold-change to WT | 0.448 fold-change to WT | 0.379 fold-change to WT | 1584000 Copies/mL | 0.465 fold-change to WT | 0.393 fold-change to WT | 0.356 fold-change to WT | 1498000 Copies/mL | 0.491 fold-change to WT | 0.405 fold-change to WT | 0.352 fold-change to WT | 1278000 Copies/mL | failed to do so | not detectable

— publication PMC6642116, “Structural and functional analyses of hepatitis B virus X protein BH3-like domain and Bcl-xL interaction” (Nature Communications, 2019)
